Assay results published in BigSolDB 2.1.

CCOC(=O)[C@H](CCc1ccccc1)N[C@@H](C)C(=O)O
solubility (mole fraction)
Conditions | 273.15 K | 278.15 K | 283.15 K | 288.15 K | 293.15 K | 298.15 K | 303.15 K | 308.15 K | 313.15 K | 318.15 K
in acetone | 0.00387 | 0.00426 | 0.00468 | 0.00515 | 0.00568 | 0.00627 | 0.007 | 0.0078 | 0.00868 | 0.0097
in acetonitrile | 0.00012 | 0.000199 | 0.000288 | 0.000427 | 0.000608 | 0.000907 | 0.00129 | 0.00183 | 0.00255 | 0.00349
in ethanol | 0.00273 | 0.00281 | 0.00294 | 0.00312 | 0.00334 | 0.0036 | 0.00396 | 0.00436 | 0.00489 | 0.00545
in ethyl acetate | 0.00898 | 0.0092 | 0.00951 | 0.00991 | 0.0104 | 0.0109 | 0.0115 | 0.0123 | 0.0131 | 0.014
in isopropanol | 0.000921 | 0.00105 | 0.0012 | 0.00141 | 0.00164 | 0.00191 | 0.00221 | 0.00257 | 0.00298 | 0.00346
in n-octanol | 0.00215 | 0.00223 | 0.00233 | 0.00246 | 0.00263 | 0.00284 | 0.0031 | 0.00343 | 0.00378 | 0.0042

CCOC(=O)[C@H](CCc1ccccc1)N[C@@H](C)C(=O)N1CCC[C@H]1C(=O)O.O=C(O)/C=C\C(=O)O
solubility (mole fraction)
Conditions | 273.15 K | 278.15 K | 283.15 K | 288.15 K | 293.15 K | 298.15 K | 303.15 K | 308.15 K | 313.15 K | 318.15 K
in acetone | 0.00118 | 0.00139 | 0.00176 | 0.0021 | 0.00243 | 0.00302 | 0.0038 | 0.00451 | 0.0054 | 0.00651
in acetonitrile | 0.000339 | 0.000452 | 0.000569 | 0.000716 | 0.0009 | 0.00117 | 0.00153 | 0.00204 | 0.00261 | 0.00334
in ethanol | 0.000616 | 0.000761 | 0.000998 | 0.00133 | 0.00177 | 0.00226 | 0.00292 | 0.00366 | 0.00449 | 0.00536
in ethyl acetate | 0.0013 | 0.00171 | 0.00231 | 0.00304 | 0.00379 | 0.00471 | 0.00576 | 0.00689 | 0.00796 | 0.00941
in isopropanol | 0.000144 | 0.000184 | 0.000242 | 0.000327 | 0.000452 | 0.000605 | 0.000809 | 0.00105 | 0.00133 | 0.00176
in n-octanol | 0.000311 | 0.000406 | 0.000509 | 0.000642 | 0.00083 | 0.00105 | 0.00131 | 0.00167 | 0.00206 | 0.00256
